Results taken from patent publication US7670416B2, “Use of a combination of substances to prevent biofouling organisms” (I-Tech AB, priority 2005, dated 2010).

Assays:
Barnacle cyprid larvae = assay: cyprid settling rate assay (barnacle biofouling); type: in vivo
Excerpt: The assays that are be used are the cyprid settling rate assay and the algae germination test.

Enteromorpha = assay: algae spore germination test (Enteromorpha biofouling); type: in vivo
Description: (§1) The efficacy of algicides is usually tested by a spore germination test. Algae are collected from the field and grown in the laboratory. […] The water with test compound is then removed and culture medium is added. The spores are left to germinate under fluorescent lamps (50 μm-2s-1 (PAR)), 16 h light, 8 h darkness, for 7 days in a culture medium, which is changed once a day.
(§2) All the different brands are tested in combination with Catemine 1 for efficacy against both barnacles and algae with the two compounds together or separate. The assays that are be used are the cyprid settling rate assay and the algae germination test.

Ulva = assay: algae spore germination test (Ulva biofouling);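 also: ulva spores exposed to test compound, then compound removed and spores germinated in culture medium under fluorescent light, 16 h light and 8 h dark, for 7 days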
Description: as §1, §2

barnacle cyprids = conditions: reference (6); cited from earlier work
algae = conditions: reference (6); target protein lacking within algae; cited from earlier work
[1] = 0.1 nM Catemine 1 alone (Table 2)
[2] = 0.1 nM Catemine 1 alone (Table 4)
[3] = 1 nM Catemine 1 alone (Table 2)
[4] = 1 nM Catemine 1 alone (Table 4)
[5] = 10 nM Catemine 1 alone (Table 2)
[6] = 10 nM Catemine 1 alone (Table 4)
[7] = 100 nM Catemine 1 alone (Table 2)
[8] = 100 nM Catemine 1 alone (Table 4)

CSc1nc(NC2CC2)nc(NC(C)(C)C)n1 [Irgarol, 2-methylthio-4-tert-butylamino-6-cyclopropylamino-s-triziane]
Barnacle biofouling (% settlement) (Barnacle cyprid larvae; 0.1 nM Irgarol alone): 100% | Barnacle biofouling (% settlement) (Barnacle cyprid larvae; 1 nM Irgarol alone): 100% | Barnacle biofouling (% settlement) (Barnacle cyprid larvae; 10 nM Irgarol alone): 100% | Barnacle biofouling (% settlement) (Barnacle cyprid larvae; 100 nM Irgarol alone): 100% | Enteromorpha biofouling (% survival) (Enteromorpha; 0.1 nM Irgarol alone): 100% | Enteromorpha biofouling (% survival) (Enteromorpha; 1 nM Irgarol alone): 100% | Enteromorpha biofouling (% survival) (Enteromorpha; 10 nM Irgarol alone): 50% | Enteromorpha biofouling (% survival) (Enteromorpha; 100 nM Irgarol alone): 0%

CN(C)S(=O)(=O)N(SC(F)(Cl)Cl)c1ccccc1 [Dichlofluanid, N′-dimethyl-N-phenylsulphamide]
Barnacle biofouling (% settlement) (Barnacle cyprid larvae; 0.1 μg/ml Dichlofluanid alone): 100% | Barnacle biofouling (% settlement) (Barnacle cyprid larvae; 1 μg/ml Dichlofluanid alone): 50% | Barnacle biofouling (% settlement) (Barnacle cyprid larvae; 10 μg/ml Dichlofluanid alone): 25% | Barnacle biofouling (% settlement) (Barnacle cyprid larvae; 100 μg/ml Dichlofluanid alone): 0% | Ulva biofouling (% survival) (Ulva; 0.1 μg/ml Dichlofluanid alone): 100% | Ulva biofouling (% survival) (Ulva; 1 μg/ml Dichlofluanid alone): 90% | Ulva biofouling (% survival) (Ulva; 10 μg/ml Dichlofluanid alone): 10% | Ulva biofouling (% survival) (Ulva; 100 μg/ml Dichlofluanid alone): 0%

Cc1cccc(C(C)c2c[nH]cn2)c1C (racemic) [Catemine 1, (+/−)-4-[1-(2,3-dimethylphenyl)ethyl]-1H-imidazole]
Barnacle biofouling (% settlement) (Barnacle cyprid larvae; 0.1 nM Catemine 1 alone): 100% | Barnacle biofouling (% settlement) (Barnacle cyprid larvae; [1]): 100% | Barnacle biofouling (% settlement) (Barnacle cyprid larvae; 0.1 nM Catemine 1 alone (Table 3)): 100% | Barnacle biofouling (% settlement) (Barnacle cyprid larvae; [2]): 100% | Barnacle biofouling (% settlement) (Barnacle cyprid larvae; 1 nM Catemine 1 alone): 10% | Barnacle biofouling (% settlement) (Barnacle cyprid larvae; [3]): 10% | Barnacle biofouling (% settlement) (Barnacle cyprid larvae; 1 nM Catemine 1 alone (Table 3)): 10% | Barnacle biofouling (% settlement) (Barnacle cyprid larvae; [4]): 10% | Barnacle biofouling (% settlement) (Barnacle cyprid larvae; 10 nM Catemine 1 alone): 0% | Barnacle biofouling (% settlement) (Barnacle cyprid larvae; [5]): 0% | Barnacle biofouling (% settlement) (Barnacle cyprid larvae; 10 nM Catemine 1 alone (Table 3)): 0% | Barnacle biofouling (% settlement) (Barnacle cyprid larvae; [6]): 0% | Barnacle biofouling (% settlement) (Barnacle cyprid larvae; 100 nM Catemine 1 alone): 0% | Barnacle biofouling (% settlement) (Barnacle cyprid larvae; [7]): 0% | Barnacle biofouling (% settlement) (Barnacle cyprid larvae; 100 nM Catemine 1 alone (Table 3)): 0% | Barnacle biofouling (% settlement) (Barnacle cyprid larvae; [8]): 0% | Enteromorpha biofouling (% survival) (Enteromorpha; 0.1 nM Catemine 1 alone): 100% | Enteromorpha biofouling (% survival) (Enteromorpha; 1 nM Catemine 1 alone): 100% | Enteromorpha biofouling (% survival) (Enteromorpha; 10 nM Catemine 1 alone): 100% | Enteromorpha biofouling (% survival) (Enteromorpha; 100 nM Catemine 1 alone): 100% | action on barnacle cyprids (barnacle cyprids): specific action | effect of algal growth (algae): no effect | Ulva biofouling (% survival) (Ulva; 0.1 nM Catemine 1 alone): 100% | Ulva biofouling (% survival) (Ulva; [1]): 100% | Ulva biofouling (% survival) (Ulva; [2]): 100% | Ulva biofouling (% survival) (Ulva; 1 nM Catemine 1 alone): 100% | Ulva biofouling (% survival) (Ulva; [3]): 100% | Ulva biofouling (% survival) (Ulva; [4]): 100% | Ulva biofouling (% survival) (Ulva; 10 nM Catemine 1 alone): 100% | Ulva biofouling (% survival) (Ulva; [5]): 100% | Ulva biofouling (% survival) (Ulva; [6]): 100% | Ulva biofouling (% survival) (Ulva; 100 nM Catemine 1 alone): 100% | Ulva biofouling (% survival) (Ulva; [7]): 100% | Ulva biofouling (% survival) (Ulva; [8]): 100%

CN(C)C(=O)Nc1ccc(Cl)c(Cl)c1 [Diuron, 3-(3,4-dichlorophenyl)-1,1-dimethylurea]
Barnacle biofouling (% settlement) (Barnacle cyprid larvae; 0.1 μM Diuron alone): 100% | Barnacle biofouling (% settlement) (Barnacle cyprid larvae; 1 μM Diuron alone): 100% | Barnacle biofouling (% settlement) (Barnacle cyprid larvae; 10 μM Diuron alone): 100% | Barnacle biofouling (% settlement) (Barnacle cyprid larvae; 100 μM Diuron alone): 100% | Ulva biofouling (% survival) (Ulva; 0.1 μM Diuron alone): 100% | Ulva biofouling (% survival) (Ulva; 1 μM Diuron alone): 90% | Ulva biofouling (% survival) (Ulva; 10 μM Diuron alone): 50% | Ulva biofouling (% survival) (Ulva; 100 μM Diuron alone): 0%

CCCCCCCCn1sc(Cl)c(Cl)c1=O [SeaNine, 4,5-dichloro-2-n-octyl-3(2H)-isothiazolone]
Barnacle biofouling (% settlement) (Barnacle cyprid larvae; 0.1 nM SeaNine alone): 100% | Barnacle biofouling (% settlement) (Barnacle cyprid larvae; 1 nM SeaNine alone): 50% | Barnacle biofouling (% settlement) (Barnacle cyprid larvae; 10 nM SeaNine alone): 10% | Barnacle biofouling (% settlement) (Barnacle cyprid larvae; 100 nM SeaNine alone): 0% | Ulva biofouling (% survival) (Ulva; 0.1 nM SeaNine alone): 100% | Ulva biofouling (% survival) (Ulva; 1 nM SeaNine alone): 50% | Ulva biofouling (% survival) (Ulva; 10 nM SeaNine alone): 10% | Ulva biofouling (% survival) (Ulva; 100 nM SeaNine alone): 0%
